Measured values taken from patent US11839609B1, “Substituted tetrahydroisoquinolines as anti-mitotic drug in triple negative breast cancer” (Florida A&M University, priority 2021, dated 2023).

Tests used:
MDA-MB-231 cells [1] = assay: Cytotoxicity assay at high plating density, 24-36 h; type: cell-based, human; conditions: 36-hour toxicity assay, equal drug concentrations, 0.5×10^5 cells/well
Method: (§1) For MDA-MB-231 cells, both paclitaxel and GM-4-53 were dissolved in DMSO and […]. A stock solution for both compounds was prepped in HBSS. In brief, 96-well plates were seeded with cells (0.04×10^5/well) to a volume of 200 μL, to which drugs were added, and cell proliferation (as cell count) was evaluated at a 6-day endpoint, using Alamar blue. For Alamar blue testing, a working solution of resazurin prepared in sterile phosphate-buffered saline (PBS)-phenol red (0.5 mg/mL) was added (15% v/v) to each sample in a 96-well plate. Samples were returned to the incubator for 4-6 h, and the reduction in the dye (to resorufin, a fluorescent compound) caused by viable cells was quantitatively analyzed using a Synergy HTX multi-mode reader (Bio-Tek, Winooski, VT, USA), with excitation/emission wavelength settings at 550 nm/580 nm. Cell count was evaluated as % control, and the inhibitory growth (IG50) value was calculated by regression analysis. […] The cytostatic effects of MCF-7 and Ishikawa cell lines were determined using the CellTiter-Glo (CTG) luminescent cell viability assay, which is based on the direct determination of intracellular ATP level (determining the number of viable cells in culture based on the quantification of ATP present), which signals the presence of metabolically active cells. Luminescence results were read on TriLux Luminometer. […]

[2] = system: MCF-7 breast cancer cell line; assay: Cytostatic effect, CellTiter-Glo luminescent cell viability assay; type: cell-based, human; conditions: MCF-7, Southern Research Institute, FIG. 4
Method: (§2) The anti-proliferative activity of GM-4-53 on two additional cell lines was evaluated at the Southern Research Institute (SRI, Birmingham, Alabama, USA). There, the human MCF-7 breast cancer cell line was purchased from the NCI. The human Ishikawa endometrial cancer cell line was purchased from Sigma Aldrich. Both cell lines were cultured in phenol red-free RPMI-1640 (Hyclone) (500 mL), supplemented with L-glutamine-dipeptide (Hyclone) (5 mL), and 10% fetal bovine serum (Atlanta Biologicals) (50 mL).
(§3) For MDA-MB-231 cells, both paclitaxel and GM-4-53 were dissolved in DMSO and […]. A stock solution for both compounds was prepped in HBSS. In brief, 96-well plates were seeded with cells (0.04×10^5/well) to a volume of 200 μL, to which drugs were added, and cell proliferation (as cell count) was evaluated at a 6-day endpoint, using Alamar blue. […] Samples were returned to the incubator for 4-6 h, and the reduction in the dye (to resorufin, a fluorescent compound) caused by viable cells was quantitatively analyzed using a Synergy HTX multi-mode reader (Bio-Tek, Winooski, VT, USA), with excitation/emission wavelength settings at 550 nm/580 nm. Cell count was evaluated as % control, and the inhibitory growth (IG50) value was calculated by regression analysis. […] Luminescence results were read on TriLux Luminometer. […]

[3] = system: Ishikawa endometrial cancer cell line; assay: as above; type: cell-based, human; conditions: Southern Research Institute, FIG. 4
Method: as §2, §3

Solubility = type: physicochemical
MDA-MB-231 cells [4] = assay: Cell proliferation (cell count), 6-day endpoint, Alamar blue; type: cell-based, human; conditions: for concentration showing a complete blockage of cell proliferation with lack of cell toxicity: MDA-MB-231, chosen for microarray
Method: MDA-MB-231 cells (ATCC® HTB-26™) were used. These cells are human triple negative breast cancer cells, which we obtained from American Type Culture Collection (ATCC) (Manassas, VA, USA). MDA-MB-231 cells were initially brought up in ATCC-formulated Leibowitz's L-15 medium, supplemented with 10% fetal bovine serum (FBS) and penicillin/streptomycin (100 U/0.1 mg/ml). After confluence, the cells were sub-cultured and grown in Dulbecco's modified Eagle's medium (DMEM) containing phenol red, 7.5% FBS, 4 mM L-glutamine, 20 μM sodium pyruvate, and penicillin/streptomycin (100 U/0.1 mg/ml). Cells were maintained at 37° C. in 5% C02/atmosphere, and every 2-5 days, the medium was replaced and cells sub-cultured. The growth medium was used for all experiments conducted herein.
as §1, with “For Alamar blue testing, a working solution of resazurin prepared in sterile phosphate-buffered saline (PBS)-phenol red (0.5 mg/mL) was added (15% v/v) to each sample in a 96-well plate.” left out

MDA-MB-231 cells [5] = assay: Whole-transcriptome microarray (WT 2.1 Human), differentially expressed genes; type: cell-based; conditions: 36 h; for ID1, ID3 and ID4 transcripts: GM-4-53 more significant effects than paclitaxel; for DEGs shared by both drugs (overlap) / down-regulated DEGs vs. controls / upregulated DEGs vs. controls / differentially expressed genes (DEGs) of 48,226 genes analyzed: paclitaxel 1 μg/mL, GM-4-53 5 μg/mL; for differentially expressed genes (DEGs) of 48,226 genes analyzed: FC >2 or <−2, p and FDR p <0.05
Method: For MDA-MB-231 cells, both paclitaxel and GM-4-53 were dissolved in DMSO and […]. A stock solution for both compounds was prepped in HBSS. In brief, 96-well plates were seeded with cells (0.04×10^5/well) to a volume of 200 μL, to which drugs were added, and cell proliferation (as cell count) was evaluated at a 6-day endpoint, using Alamar blue. For Alamar blue testing, a working solution of resazurin prepared in sterile phosphate-buffered saline (PBS)-phenol red (0.5 mg/mL) was added (15% v/v) to each sample in a 96-well plate. Samples were returned to the incubator for 4-6 h, and the reduction in the dye (to resorufin, a fluorescent compound) caused by viable cells was quantitatively analyzed using a Synergy HTX multi-mode reader (Bio-Tek, Winooski, VT, USA), with excitation/emission wavelength settings at 550 nm/580 nm. Cell count was evaluated as % control, and the inhibitory growth (IG50) value was calculated by regression analysis. Cytotoxicity studies were carried out at equal dose concentrations as proliferation studies at a higher plating density (0.5×10^5/well), over 24-36 h. The cytostatic effects of MCF-7 and Ishikawa cell lines were determined using the CellTiter-Glo (CTG) luminescent cell viability assay, which is based on the direct determination of intracellular ATP level (determining the number of viable cells in culture based on the quantification of ATP present), which signals the presence of metabolically active cells. Luminescence results were read on TriLux Luminometer. Optimal concentrations for microarray were established by a lack of cell toxicity, at a concentration showing a complete blockage of cell proliferation; paclitaxel (1 μg/mL) and GM-4-53 (5 μg/mL). For microarray studies, cells were plated and treated in […] flasks for 36 h.
After the experimental 36-hour time point, the cells were scraped, washed three times in ice-cold HBSS, spun down, the supernatant removed, and the remaining pellet was rapidly frozen and stored at −80° C. Total RNA was isolated and purified using the Trizol/chloroform method. The RNA quality was assessed, and concentrations were equalized to 82 ng/μI in nuclease-free water. According to the GeneChip™ WT PLUS Reagent Manual for Whole Transcript (WT) expression arrays, whole transcriptome analysis was conducted. Briefly, RNA was reverse transcribed to first strand/second strand […]. The cRNA was purified and assessed for yield before the second cycle single-stranded cDNA synthesis, hydrolysis of RNA, and purification of the second cycle single-stranded cDNA. Subsequently, cDNA was assessed for yield, fragmented, labeled, and hybridized onto the arrays before being subjected to fluidics and imaging using the Gene Atlas (Affymetrix, ThermoFisher Scientific). The array data, quality control, and initial processing from CEL to CHP files were conducted using an expression console before data evaluation using the Affymetrix transcriptome analysis console (Wiki/Kegg pathways) and protein-protein interaction (PPI) String Database (String Consortium 2020)^1. The dataset has been deposited to NIH Gene Expression OmniBus.

MDA-MB-231 cells [6] = assay: 2D imaging of cytoskeletal morphology (phalloidin/propidium iodide); type: cell-based, human; conditions: day 6; GM-4-53 5 μg/mL, paclitaxel 1 μg/mL
Method: (§4) 2D cell cultures were imaged to ascertain changes in morphological structure at the 6-day endpoint in MDA-MB-231 cells in the presence or absence of treatments. In brief, cells were fixed in 4% paraformaldehyde and incubated at 37° C. in 5% CO2/atmosphere for 15 min. After delicate removal of paraformaldehyde, sterile ultra-pure biological grade water containing 0.2% Triton X-100 was gently added to each well (100 uL) and returned to the incubator for 45 min. After gentle removal, a PBS solution containing propidium iodide (1 μg/mL) and Phalloidin-iFluor 488 Reagent (ab176753) was added to each well, according to the manufacturer's instructions Abcam (Cambridge, MA, USA), and images were captured on an inverted fluorescent microscope using the 10× and 25× fluo-objectives. 3D tumors were stained with fluorescein diacetate (live-cell dye) and countered imaged for morphology.

[7] = system: triple negative breast cancer (TNBC); assay: Treatment of a TNBC patient (Example 1); type: in vivo, human; conditions: therapeutically effective amount
Method: A patient presents with a lump in their left breast. A biopsy of the mass is performed and the cells are found to lack estrogen or progesterone receptors and HER2 protein thus confirming a diagnosis of triple negative breast cancer (TNBC). The patient is administered a therapeutically effective amount of 4-Ethyl-N-(7-hydroxy-3,4-dihydroisoquinolin-2(1H)-yl) benzamide (GM-4-53) for a time period sufficient to inhibit cell proliferation. The patient is tested at regular intervals while the drug is being administered as well as after administration has stopped.

tubulin = assay: Tubulin polymerization/depolymerization; type: biochemical
MDA-MB-231 cells [8] = assay: 3D tumor spheroid study; type: cell-based, human; conditions: GM-4-53 5 μg/mL, paclitaxel 1 μg/mL; drugs added day 14, images day 24
Method: MDA-MB-231 cells were plated in low-adhesion, round-bottom, sterile, 96-well plates at a cell density of (0.2×10^5/well), in 200 uL of cell culture media centrifuged at 1800×g for 3 min prior to incubation at 37° C. in 5% C02/atmosphere. For the first 3 days, cells were taken out and re-centrifuged at 1800×g×3 min. 3D spheroids were left to grow for 10 days. On day 14, experimental drugs were added, and images were captured on day 24.
as §4

Structure (SMILES)	cytotoxic effects (MDA-MB-231 cells [1])	concentration showing a complete blockage of cell proliferation with lack of cell toxicity (MDA-MB-231 cells [4])	amphiregulin (AREG) and epiregulin (EREG) mRNA (MDA-MB-231 cells [5])	expression of COX2 (MDA-MB-231 cells [5])	expression of ICAM-1 (MDA-MB-231 cells [5])	ID1, ID3 and ID4 transcripts (MDA-MB-231 cells [5])	DEGs shared by both drugs (overlap) (MDA-MB-231 cells [5])	down-regulated DEGs vs. controls (MDA-MB-231 cells [5])	upregulated DEGs vs. controls (MDA-MB-231 cells [5])	differentially expressed genes (DEGs) of 48,226 genes analyzed (MDA-MB-231 cells [5])	morphological changes of actin cytoskeleton (MDA-MB-231 cells [6])	effect on 3D tumor spheroid (MDA-MB-231 cells [8])	other results
CCc1ccc(C(=O)NN2CCc3ccc(O)cc3C2)cc1 [GM-4-53, 4-Ethyl-N-(7-hydroxy-3,4-dihydroisoquinolin-2(1H)-yl)benzamide]	no cytotoxic effects	5 µg/mL	significantly downregulated	downregulated the expression	reduced the expression	pronounced downregulation	52	168	75	243	abnormally large-shaped extended actin networks	halts the growth and appears to penetrate the tumor core	IG50 (cytostatic growth-inhibitory effect) [2]: mid-to-high; IG50 (cytostatic growth-inhibitory effect) [3]: mid-to-high; solubility (Solubility): excellent solubility; IC50 (MDA-MB-231 cells [4]; Homo sapiens, 144 h, MDA-MB-231, 6-day growth study, regression analysis, read-out: anti-proliferative IG50 growth inhibitory concentration): 0.261 µM; oncogenic transcription factors (FOS, JUN-b, NFKB1a) driving oncostatin M (OSM) signaling (MDA-MB-231 cells [5]; vs untreated controls): general loss; KLRC3 transcript (MDA-MB-231 cells [5]; greater extent in GM-4-53): loss of the KLRC3 transcript; patient outcome [7]: deemed in remission; effect on tubulin nucleation (tubulin): only mild effects; effect on tubulin polymerization/depolymerization processes (tubulin): failed to show any effect
CC(=O)O[C@H]1C(=O)[C@@]2(C)[C@H]([C@H](OC(=O)c3ccccc3)[C@]3(O)C[C@H](OC(=O)[C@H](O)[C@@H](NC(=O)c4ccccc4)c4ccccc4)C(C)=C1C3(C)C)[C@]1(OC(C)=O)CO[C@@H]1C[C@@H]2O [paclitaxel, reference compound]	no cytotoxic effects	1 µg/mL	significantly downregulated	downregulated the expression	reduced the expression	pronounced downregulation	52	45	108	153	abnormally large-shaped extended actin networks	halt the growth of the spheroid and central core	–
